Laboratory results published in patent US20260137664A1, “THERAPEUTIC AGENT FOR INTRACTABLE LYMPHATIC DISEASE AND INTRACTABLE VASCULAR DISEASE” (NATIONAL UNIVERSITY CORPORATION TOKAI NATIONAL HIGHER …, priority 2022, published 2026).

Assay: Population pharmacokinetic (PPK) analysis, nonlinear mixed effects model, two-compartment model
Type: in vivo, patients and healthy adults
Text: The memory unit 12 stores pre-constructed PK (pharmacokinetics) model information. Specifically, it stores a blood concentration calculation formula for the active ingredient sirolimus when the drug is repeatedly administered, a parameter calculation formula for calculating parameters corresponding to patient information, and pre-constructed estimated values of pharmacokinetic parameters. The blood concentration calculation formula is a formula that expresses the blood sirolimus concentration based on a two-compartment model. The parameters corresponding to patient information are parameters used in the blood concentration calculation formula, and are standard parameters for estimating the blood sirolimus concentration of patients who have the same patient information (also referred to as “patient background”). In this document, these are referred to as “standard PK parameters”.
Here, ka is the absorption rate constant (h−1), Cl/F is the clearance (L/h), V1/F is the volume of the first compartment (L), V2/F is the volume of the second compartment (L), and Q/F is the intercompartmental clearance […]. The values of these parameters are related to the patient's weight and age, the dosage form of the administered drug, and the presence or absence of concomitant use of a CYP3A4 inhibitor or CYP3A4 inducer. Di is the dose of the drug.
Each parameter in the blood concentration calculation formula is expressed as a function with the patient's weight and age, the dosage form of the drug, etc. as variables. This function corresponds to the parameter calculation formula for calculating the parameters corresponding to the patient. This parameter calculation formula is obtained in advance by population pharmacokinetic analysis using a nonlinear mixed effects model.
In formula (2), TVka is the typical value of the absorption rate constant ka, and is obtained in advance by population pharmacokinetic analysis. In this embodiment, the point estimate of TVKa is 0.235 (h−1), the relative error is 1.17%, and the 95% confidence interval is 0.229-0.240.
In formula (3), TVCl is a typical value of clearance Cl/F, and is obtained in advance by population pharmacokinetic analysis. In this embodiment, the point estimate of TVCl is 6.44 (L/h), the relative error is 6.04%, and the width of the 95% confidence interval is 5.72-7.25. WT is the patient's body weight. PMA (Post menstrual age) is the age after the last menstrual period (gestational age+postnatal age) and corresponds to the patient's age. e^ηCL represents inter-individual variation. When there is no actual measured value for the patient, ηCL is 0, and the inter-individual variation is 1. “Clinical trials assay” refers to a blood sample stored frozen, and in the case of a blood sample stored frozen, it is multiplied by 1.92. In the case of a blood sample stored refrigerated, it is multiplied by 1. “CYP3A4 fold change” is a coefficient that is determined according to the concomitant drug when there is a concomitant drug. The coefficient will be described later with reference to FIG. 9.
In formula (4), TVV1 is a typical value of the volume of the first compartment V1/F, and is obtained in advance by population pharmacokinetic analysis. In the embodiment, the point estimate of TVV1 is 176 (L), the relative error is 2.43%, and the width of the 95% confidence interval is 168-185. WT is the patient's body weight. eηV1 represents inter-individual variation. When there is no actual measured value for the patient, ηV1 is 0, and the inter-individual variation is 1. Depending on the information that can be obtained, it may be difficult to estimate the random effect of the patient on V1, and in such a case, the inter-individual variation for V1 may be set to 1 for all patients.
In formula (5), TVV2 is the typical value of the volume of the second compartment V2/F, and is determined in advance by population pharmacokinetic analysis. […]

TVka, typical value of the absorption rate constant ka (point estimate) (population pharmacokinetic analysis, relative error 1.17%, 95% confidence interval 0.229-0.240): 0.235 h⁻¹
TVV1, typical value of the volume of the first compartment V1/F (point estimate) (population pharmacokinetic analysis, relative error 2.43%, 95% confidence interval 168-185): 176 L
TVQ, typical value of the intercompartmental clearance Q/F (point estimate) (population pharmacokinetic analysis, relative error 4.07%, 95% confidence interval 31.0-36.3): 33.6 L/h
TVCl, typical value of clearance Cl/F (point estimate) (population pharmacokinetic analysis, relative error 6.04%, 95% confidence interval 5.72-7.25): 6.44 L/h
TVV2, typical value of the volume of the second compartment V2/F (point estimate) (population pharmacokinetic analysis, relative error 13%, 95% confidence interval 218-362): 281 L
factor by which TVka is multiplied (when the drug is a granule (Granule formulation), formula (2)): 4.26
Compound: CO[C@H]1C[C@@H]2CC[C@@H](C)[C@@](O)(O2)C(=O)C(=O)N2CCCC[C@H]2C(=O)O[C@H]([C@H](C)C[C@@H]2CC[C@@H](O)[C@H](OC)C2)CC(=O)[C@H](C)/C=C(\C)[C@@H](O)[C@@H](OC)C(=O)[C@H](C)C[C@H](C)/C=C/C=C/C=C/1C [sirolimus]
